{"source": "patent US10174002B2", "about": "“Pyridine derivatives as CFTR modulators” (NuBridge BioSciences, priority 2015, dated 2019)", "note": "Structures can show the parent of a compound that is named as a salt.", "data": [{"target": "T1, ΔF508 mutant CFTR (Homo sapiens, UniProt P13569, DEL508-508)", "T1 construct": "expressed in transfected cells; host or cells: Fischer rat thyroid (FRT) cells, co-expressing the halide-sensitive YFP-H148Q/I152L", "T1 sequence (P13569 with tags, fused parts or gaps DEL508-508)": "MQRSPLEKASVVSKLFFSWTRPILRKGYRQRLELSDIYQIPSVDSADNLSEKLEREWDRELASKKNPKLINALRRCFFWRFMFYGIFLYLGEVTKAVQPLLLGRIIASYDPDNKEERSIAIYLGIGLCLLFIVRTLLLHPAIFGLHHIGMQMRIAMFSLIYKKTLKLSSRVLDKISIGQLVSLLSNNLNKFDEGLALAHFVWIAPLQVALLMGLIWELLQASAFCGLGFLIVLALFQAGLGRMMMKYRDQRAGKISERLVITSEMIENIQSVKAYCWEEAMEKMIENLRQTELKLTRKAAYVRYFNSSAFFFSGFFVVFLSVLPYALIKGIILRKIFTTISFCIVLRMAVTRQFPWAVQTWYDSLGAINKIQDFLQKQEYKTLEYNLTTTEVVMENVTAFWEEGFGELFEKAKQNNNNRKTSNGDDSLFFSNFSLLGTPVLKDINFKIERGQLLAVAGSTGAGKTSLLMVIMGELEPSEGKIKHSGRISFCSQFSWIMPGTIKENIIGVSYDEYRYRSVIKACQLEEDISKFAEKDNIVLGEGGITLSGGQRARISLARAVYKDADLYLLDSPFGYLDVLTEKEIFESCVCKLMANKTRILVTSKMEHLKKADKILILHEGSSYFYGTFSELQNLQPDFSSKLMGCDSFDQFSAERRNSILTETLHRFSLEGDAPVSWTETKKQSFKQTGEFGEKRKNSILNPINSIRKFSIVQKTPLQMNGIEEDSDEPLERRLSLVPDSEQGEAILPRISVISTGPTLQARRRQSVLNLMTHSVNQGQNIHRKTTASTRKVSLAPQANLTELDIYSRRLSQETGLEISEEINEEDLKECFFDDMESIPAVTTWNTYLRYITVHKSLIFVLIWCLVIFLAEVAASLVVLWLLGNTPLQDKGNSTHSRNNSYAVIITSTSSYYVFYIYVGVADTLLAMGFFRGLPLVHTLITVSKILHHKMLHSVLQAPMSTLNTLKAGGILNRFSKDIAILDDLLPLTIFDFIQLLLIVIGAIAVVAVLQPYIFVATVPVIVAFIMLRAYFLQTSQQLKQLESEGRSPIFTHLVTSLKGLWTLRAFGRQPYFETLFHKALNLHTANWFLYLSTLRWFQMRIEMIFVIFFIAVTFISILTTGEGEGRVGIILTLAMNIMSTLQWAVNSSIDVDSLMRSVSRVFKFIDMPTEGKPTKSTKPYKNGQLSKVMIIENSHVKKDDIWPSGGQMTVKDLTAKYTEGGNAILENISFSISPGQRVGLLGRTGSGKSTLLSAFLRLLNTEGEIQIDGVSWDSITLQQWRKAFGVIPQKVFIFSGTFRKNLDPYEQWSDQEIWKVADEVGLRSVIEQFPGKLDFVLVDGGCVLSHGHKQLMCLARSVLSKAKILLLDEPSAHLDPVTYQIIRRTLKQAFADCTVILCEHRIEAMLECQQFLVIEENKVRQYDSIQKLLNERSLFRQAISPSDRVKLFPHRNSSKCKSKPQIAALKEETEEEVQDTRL", "test": "Fluorescence Assay of ΔF508 mutant CFTR activity (halide-sensitive YFP quenching by iodide influx in FRT cells)", "assay_type": "cell-based", "design": "key: fold of mean activity with forskolin alone (I− quenching rate)", "conditions": "test compounds 20 μM with forskolin 20 μM, 20 min; FRT cells expressing ΔF508-CFTR and YFP-H148Q/I152L, incubated at 27° C. 20-24 h; rate of fluorescence quenching by I−, normalized to mean activity with forskolin alone", "from_the_text": "The ΔF508 mutant CFTR activities of the CFTR modulators are detected using the Fluorescence Assay developed by Pedemonte (Pedemonte N., et al., Antihypertensive 1,4-dihydropyridines as correctors of the cystic fibrosis transmembrane conductance regulator channel gating defect caused by cystic fibrosis mutations, Mol. Pharmacol., 2005, 68, 1736-1746).\nFischer rat thyroid (FRT) cells, stably transfected with ΔF508 were retransfected with the YFP-H148Q/I152L fluorescent protein. The cells were plated (100,000 cells/well) on black 96-well microplates with clear plastic bottom (Corning Life Sciences, Acton, Mass.).\nThe 96-well microplates containing FRT cells expressing F508-CFTR and the halide-sensitive YFP were incubated at 27° C. for 20 to 24 h to allow rescue of the mutant protein to the plasma membrane. After incubation, cells were washed with PBS (containing 137 mM NaCl, 2.7 mM KCl, 8.1 mM Na2HPO4, 1.5 mM KH2PO4, 1 mM CaCl2, and 0.5 mM MgCl2) and stimulated for 20 min with forskolin (20 μM) and test compounds (20 μM) in a final volume of 60 μl. Microplates were then transferred to a microplate reader for CFTR activity determination. Each assay consisted of a continuous 14-s fluorescence reading (5 points per second) with 2 s before and 12 s after injection of 165 μl of an iodide-containing solution (PBS with Cl^− replaced by I^−). Final iodide concentration in the wells was 100 mM. […] To determine I^− influx rate, the final 11 s of the data for each well were fitted with an exponential function to extrapolate initial slope. CFTR activity was determined by measuring the rate of fluorescence quenching induced by extracellular addition of I^−. Data are normalized to the mean activity measured in the presence of forskolin alone.", "values": [{"smiles": "Cl.Nc1cc(C(F)(F)F)c(-c2c(F)cccc2F)nc1C(=O)Nc1cnccc1OCC1CCNCC1", "note": "[Example 49, 3-amino-6-(2,6-difluorophenyl)-N-(4-(piperidin-4-ylmethoxy)pyridin-3-yl)-5-(trifluoromethyl)picolinamide hydrochloride]", "CFTR Activity": 4.3}, {"smiles": "Cl.O=C(Nc1cnccc1OC1CCCNCC1)c1ccc(C(F)(F)F)c(-c2c(F)cccc2F)n1", "note": "(stereo not shown) [Example 42, N-(4-(azepan-4-yloxy)pyridin-3-yl)-6-(2,6-difluorophenyl)-5-(trifluoromethyl)picolinamide hydrochloride]", "CFTR Activity": 2.7}, {"smiles": "O=C(Nc1cnccc1OCC1CCOCC1)c1ccc(C(F)(F)F)c(-c2c(F)cccc2F)n1", "note": "[Example 47, 6-(2,6-difluorophenyl)-N-(4-((tetrahydro-2H-pyran-4-yl)methoxy)pyridin-3-yl)-5-(trifluoromethyl)picolinamide]", "CFTR Activity": 0.4}, {"smiles": "NCC(CCl)Oc1ccncc1NC(=O)c1ccc(F)c(-c2c(F)cccc2F)n1", "note": "(stereo not shown) [Example 29, N-(4-((1-amino-3-chloropropan-2-yl)oxy)pyridin-5-yl)-6-(2,6-difluorophenyl)-5-fluoropicolinamide hydrochloride]", "CFTR Activity": 1.8}, {"smiles": "CNCCCOc1ccncc1NC(=O)c1ccc(F)c(-c2c(F)cccc2F)n1.Cl", "note": "[Example 13, 6-(2,6-difluorophenyl)-5-fluoro-N-(4-(3-(methylamino)propoxy)pyridin-3-yl)picolinamide hydrochloride]", "CFTR Activity": 0.6}, {"smiles": "Cl.NCC(CCl)COc1ccncc1NC(=O)c1nc(-c2c(F)cccc2F)c(C(F)(F)F)cc1N", "note": "(stereo not shown) [Example 55, 3-amino-N-(4-(3-amino-2-(chloromethyl)propoxy)pyridin-3-yl)-6-(2,6-difluorophenyl)-5-(trifluoromethyl)picolinamide hydrochloride]", "CFTR Activity": 5.5}, {"smiles": "Cl.Nc1cc(C(F)(F)F)c(-c2c(F)cccc2F)nc1C(=O)Nc1cnccc1OC1CCCNCC1", "note": "(stereo not shown) [Example 48, 3-amino-N-(4-(azepan-4-yloxy)pyridin-3-yl)-6-(2,6-difluorophenyl)-5-(trifluoromethyl)picolinamide hydrochloride]", "CFTR Activity": 5.2}, {"smiles": "Cl.NC1CCCC(Oc2ccncc2NC(=O)c2ccc(C(F)(F)F)c(-c3c(F)cccc3F)n2)C1", "note": "(stereo not shown) [Example 60, N-(4-((3-aminocyclohexyl)oxy)pyridin-3-yl)-6-(2,6-difluorophenyl)-5-(trifluoromethyl)picolinamide hydrochloride]", "CFTR Activity": 5.7}, {"smiles": "Cl.O=C(Nc1cnccc1OCC1CCNC1)c1ccc(F)c(-c2c(F)cccc2F)n1", "note": "(stereo not shown) [Example 8, 6-(2,6-difluorophenyl)-5-fluoro-N-(4-(pyrrolidin-3-ylmethoxy)pyridin-3-yl)picolinamide hydrochloride]", "CFTR Activity": 0.5}, {"smiles": "Cl.O=C(Nc1cnccc1OCC1CCNCC1)c1ccc(C(F)(F)F)c(-c2c(F)cccc2F)n1", "note": "[Example 43, 6-(2,6-difluorophenyl)-N-(4-(piperidin-4-ylmethoxy)pyridin-3-yl)-5-(trifluoromethyl)picolinamide hydrochloride]", "CFTR Activity": 2.3}, {"smiles": "Cl.O=C(Nc1cnccc1OC1CCCNCC1)c1nc(-c2c(F)cccc2F)ccc1F", "note": "(stereo not shown) [Example 40, N-(4-(azepan-4-yloxy)pyridin-3-yl)-6-(2,6-difluorophenyl)-3-fluoropicolinamide hydrochloride]", "CFTR Activity": 1.8}, {"smiles": "Cl.Nc1cc(F)c(-c2c(F)cccc2F)nc1C(=O)Nc1cnccc1OC1CCNC1", "note": "(stereo not shown) [Example 24, 3-amino-6-(2,6-difluorophenyl)-5-fluoro-N-(4-(pyrrolidin-3-yloxy)pyridin-3-yl)picolinamide hydrochloride]", "CFTR Activity": 2.1}, {"smiles": "Cl.Nc1cc(F)c(-c2c(F)cccc2F)nc1C(=O)Nc1cnccc1OC1CNC1", "note": "[Example 31, 3-amino-N-(4-(azetidin-3-yloxy)pyridin-3-yl)-6-(2,6-difluorophenyl)-5-fluoropicolinamide hydrochloride]", "CFTR Activity": 1.1}, {"smiles": "Cl.NCCCCOc1ccncc1NC(=O)c1ccc(F)c(-c2c(F)cccc2F)n1", "note": "[Example 15, N-(4-(4-aminobutoxy)pyridin-3-yl)-6-(2,6-difluorophenyl)-5-fluoropicolinamide hydrochloride]", "CFTR Activity": 0.7}, {"smiles": "Cl.NCC(CCl)Oc1ccncc1NC(=O)c1nc(-c2c(F)cccc2F)c(F)cc1N", "note": "(stereo not shown) [Example 33, 3-amino-N-(4-((1-amino-3-chloropropan-2-yl)oxy)pyridin-3-yl)-6-(2,6-difluorophenyl)-5-fluoropicolinamide hydrochloride]", "CFTR Activity": 2.1}, {"smiles": "Cl.Nc1cc(F)c(-c2c(F)cccc2F)nc1C(=O)Nc1cnccc1OCC1CCNC1", "note": "(stereo not shown) [Example 28, 3-amino-6-(2,6-difluorophenyl)-5-fluoro-N-(4-(pyrrolidin-3-ylmethoxy)pyridin-3-yl)picolinamide hydrochloride]", "CFTR Activity": 2.2}, {"smiles": "Cl.O=C(Nc1cnccc1OC1CCCNCC1)c1ccc(F)c(-c2c(F)cccc2F)n1", "note": "(stereo not shown) [Example 6, N-(4-(azepan-4-yloxy)pyridin-3-yl)-6-(2,6-difluorophenyl)-5-fluoropicolinamide hydrochloride]", "CFTR Activity": 1.9}, {"smiles": "Cl.NCC(CCl)COc1ccncc1NC(=O)c1ccc(C(F)(F)F)c(-c2c(F)cccc2F)n1", "note": "(stereo not shown) [Example 54, N-(4-(3-amino-2-(chloromethyl)propoxy)pyridin-3-yl)-6-(2,6-difluorophenyl)-5-(trifluoromethyl)picolinamide hydrochloride]", "CFTR Activity": 1.8}, {"smiles": "COc1cccc(F)c1-c1nc(C(=O)Nc2cnccc2OC2CCCNCC2)ccc1F.Cl", "note": "(stereo not shown) [Example 41, N-(4-(azepan-4-yloxy)pyridin-3-yl)-5-fluoro-6-(2-fluoro-6-methoxyphenyl)picolinamide hydrochloride]", "CFTR Activity": 2.0}, {"smiles": "Cl.Nc1cc(F)c(-c2c(F)cccc2F)nc1C(=O)Nc1cnccc1OC1CCCNCC1", "note": "(stereo not shown) [Example 26, 3-amino-N-(4-(azepan-4-yloxy)pyridin-3-yl)-6-(2,6-difluorophenyl)-5-fluoropicolinamide hydrochloride]", "CFTR Activity": 4.3}, {"smiles": "Cl.Nc1cc(C(F)(F)F)c(-c2c(F)cccc2F)nc1C(=O)Nc1cnccc1OC1CCCC(N)C1", "note": "(stereo not shown) [Example 61, 3-amino-N-(4-((3-aminocyclohexyl)oxy)pyridin-3-yl)-6-(2,6-difluorophenyl)-5-(trifluoromethyl)picolinamide hydrochloride]", "CFTR Activity": 6.1}, {"smiles": "Cl.O=C(Nc1cnccc1OC1CCNCC1)c1ccc(F)c(-c2c(F)cccc2F)n1", "note": "[Example 3, 6-(2,6-difluorophenyl)-5-fluoro-N-(4-(piperidin-4-yloxy)pyridin-3-yl)picolinamide hydrochloride]", "CFTR Activity": 1.6}, {"smiles": "Cl.NCC(CO)COc1ccncc1NC(=O)c1nc(-c2c(F)cccc2F)c(F)cc1N", "note": "(stereo not shown) [Example 57, 3-amino-N-(4-(3-amino-2-(hydroxymethyl)propoxy)pyridin-3-yl)-6-(2,6-difluorophenyl)-5-fluoropicolinamide hydrochloride]", "CFTR Activity": 2.1}, {"smiles": "CNCCCCOc1ccncc1NC(=O)c1ccc(F)c(-c2c(F)cccc2F)n1.Cl", "note": "[Example 16, 6-(2,6-difluorophenyl)-5-fluoro-N-(4-(4-(methylamino)butoxy)pyridin-3-yl)picolinamide hydrochloride]", "CFTR Activity": 0.6}, {"smiles": "O=C(Nc1cnccc1OCCC(O)CO)c1ccc(F)c(-c2c(F)cccc2F)n1", "note": "(stereo not shown) [Example 21, 6-(2,6-difluorophenyl)-N-(4-(3,4-dihydroxybutoxy)pyridin-3-yl)-5-fluoropicolinamide]", "CFTR Activity": 0.1}, {"smiles": "Cl.O=C(Nc1cnccc1OC1CCNC1)c1ccc(F)c(-c2c(F)cccc2F)n1", "note": "(stereo not shown) [Example 4, 6-(2,6-difluorophenyl)-5-fluoro-N-(4-(pyrrolidin-3-yloxy)pyridin-3-yl)picolinamide hydrochloride]", "CFTR Activity": 0.9}, {"smiles": "Cl.Nc1cc(F)c(-c2c(F)cccc2F)nc1C(=O)Nc1cnccc1OC1CCCC(N)C1", "note": "(stereo not shown) [Example 37, 3-amino-N-(4-((3-aminocyclohexyl)oxy)pyridin-3-yl)-6-(2,6-difluorophenyl)-5-fluoropicolinamide hydrochloride]", "CFTR Activity": 4.8}, {"smiles": "Cl.Nc1cc(C(F)(F)F)c(-c2c(F)cccc2F)nc1C(=O)Nc1cnccc1OCC1CNC1", "note": "[Example 50, 3-amino-N-(4-(azetidin-3-ylmethoxy)pyridin-3-yl)-6-(2,6-difluorophenyl)-5-(trifluoromethyl)picolinamide hydrochloride]", "CFTR Activity": 2.7}]}]}
